Measured values as given in PMC10353390, “Biological and Structural Analyses of New Potent Allosteric Inhibitors of HIV-1 Integrase” (Antimicrobial Agents and Chemotherapy, 2023).
Like-named read-outs stand apart in the source and are kept apart here.

How the values were obtained:
HIV-1 IN = biological target: T1, HIV-1 IN (Human immunodeficiency virus type 1 group M subtype B, UniProt P12497); assay: HTRF IN multimerization assay; type: biochemical; conditions: mean ± SD
T1 construct: made in house
Source text: A key property of INLAIs is the ability to promote HIV-1 IN homo-multimerization ([39][–][42]). […] The maximal signal (plateau) in our IN aggregation assay corresponds to the highest HTRF signal increase under saturating INLAI concentration, relative to baseline level. Thus, MUT916, MUT884, MUT871, and MUT872 increased HIV-1 IN aggregation 3.7 to 4.4-fold, while BDM-2, BI-224436, and S-I-82 did so 5 to 6-fold (Table 1).

HXB2 HIV-1 strain = assay: Multiple-round infection assay in MT4 cells, HXB2; type: cell-based; conditions: Human immunodeficiency virus 1, HXB2; multiple-round infection, MT4 cells; mean ± SD, n > 5; read-out: EC50 HXB2
Protocol: Antiretroviral activity of BDM-2 and its analogs was first evaluated in lymphoblastoid cell line MT4 and in primary human T lymphocytes using NL4-3 and HXB2 laboratory HIV-1 isolates.
(§1) MT4 cells growing exponentially at the density of 10^6/mL were infected with HIV-1 strain NL4-3 at a multiplicity of infection (MOI) of 0.001 for 2 h in the presence of different concentrations of compounds, and the CellTiter-Glo luminescent reagent (Promega) was used to quantify cell viability as described previously ([12]).

NL4-3 HIV-1 strain = assay: Multiple-round infection assay in MT4 cells, NL4-3; type: cell-based; conditions: MT4 cells
[1] = Cytotoxicity assay in MT4 cells; type: cell-based; conditions: human, MT4 cells (proliferating human T-cell line), CellTiter-Glo
Source text: Growth inhibition was monitored in a proliferating human T-cell line (MT4) with different concentrations of compounds, using the CellTiter-Glo luminescent reagent (Promega), as previously described ([12]).

[2] = tested on: lab-adapted and clinical HIV-1 isolates; assay: Infection assays in primary T CD4+ lymphocytes; type: cell-based; conditions: Human immunodeficiency virus 1, Lymphocyte
[3] = tested on: VSV-G-pseudotyped NL4-3Δenv-luc; assay: microbe, parasite or virus in culture; type: cell-based, HIV-1; conditions: Human immunodeficiency virus 1, NL43, MT4, read-out: EC50 in single-round infection
[4] = tested on: recombinant NL4-3 viruses with polymorphisms at IN positions 124 and 125; assay: Multiple-round infection of MT4 cells with recombinant NL4-3 viruses polymorphic at IN positions 124 and 125; type: cell-based, HIV-1
Source text: Located on the HIV-1 IN CCD dimerization interface, the principal INLAI binding pocket overlaps with a hot spot of amino acid sequence polymorphism involving IN residues 124 and 125 ([16]). To test if the new INLAIs maintained antiviral activity against major polymorphisms, we introduced all major combinations of residues found in circulating HIV-1 strains at positions 124 and 125 into NL4-3 HIV-1 molecular clone. In total, we evaluated 15 such combinations that collectively covered 98% of all HIV-1 clade polymorphisms involving these positions ([48]). To gauge effects on the antiviral activity, we calculated the EC50 fold change (FC) relative to wild type NL4-3 HIV-1 strain that features Thr124 and Thr125 (TT; specific polymorphisms are referred to by a single letter amino acid code).
as §1

[5] = tested on: primary HIV-1 isolates with polymorphisms at IN positions 124 and 125; assay: Multiple-round infection of MT4 cells with primary HIV-1 isolates polymorphic at IN positions 124 and 125; type: cell-based; conditions: primary isolate
Protocol: Next, we evaluated the potency of the BDM-2 series of INLAIs against several primary HIV-1 isolates with polymorphisms at IN positions 124 and 125.
as §1

[6] = tested on: HIV-1 strains resistant to INSTIs, NRTIs, NNRTIs or PIs; type: cell-based
Protocol: To this end, we used both recombinant viruses constructed by introducing described drug resistance mutations into NL4-3 HIV-1 clone as well as drug-resistant clinical HIV-1 isolates.
as §1

[7] = tested on: NL4-3 HIV-1 with INLAI-selected IN single point mutations; type: cell-based
[8] = biological target: HIV-1 IN-LEDGF/p75 interaction (Human immunodeficiency virus type 1 group M subtype B, UniProt P12497); assay: biochemical
Protocol: The INLAIs were tested for the ability to inhibit the HIV-1 IN-LEDGF/p75 interaction in a homogeneous time-resolved fluorescence (HTRF) assay. Our assays used either full-length IN and LEDGF/p75 proteins or their respective minimally sufficient interaction domains: the CCD of HIV-1 IN and the IBD of LEDGF/p75 (Table 1).
HTRF-based CCD-IBD interaction, IN-LEDGF/p75 interaction and IN multimerization assays were performed as described previously ([12]).

[9] = biological target: CCD of HIV-1 IN and IBD of LEDGF/p75 (Human immunodeficiency virus type 1 group M subtype B, UniProt P12497); assay: biochemical
[10] = INSTI-resistant, NL4-3 background
[11] = INSTI-resistant, primary patient-derived strain

SMILES: Cc1nc2ccccc2c(-c2ccc3c4c(ccnc24)CCO3)c1[C@H](OC(C)(C)C)C(=O)O [BI-224436, reference compound]
- AC50 (HIV-1 IN; concentration for 50% maximum activation of multimerization): 34 ± 11 nM
- IN multimerization Plateau (HIV-1 IN; maximum multimerization reached versus baseline): 670 ± 210%
- EC50 (HXB2 HIV-1 strain): 23 ± 8.4 nM
- EC90 (NL4-3 HIV-1 strain; Human immunodeficiency virus 1, NL43, multiple-round infection, from dose response curves, read-out: EC90 NL4-3): 77 ± 34 nM
- EC50 (NL4-3 HIV-1 strain; Human immunodeficiency virus 1, NL43, multiple-round infection, mean ± SD, n > 5, read-out: EC50 NL4-3): 51 ± 17 nM
- Selectivity index CC50/EC50 NL4-3 (NL4-3 HIV-1 strain): >3,921
- CC50 [1]: > 200000 nM
- EC50 ([2]; read-out: EC50 33913N (B)): 20 ± 9 nM
- EC50 ([2]; read-out: EC50 HXB2 (B)): 14 ± 7 nM
- EC50 ([2]; read-out: EC50 KER2008 (A)): 37 ± 12 nM
- EC50 ([2]; read-out: EC50 NL4-3 (B)): 100 ± 80 nM
- EC50 ([2]; read-out: EC50 NP1525 (CRF01_AE)): 61 ± 35 nM
- EC50 ([2]; read-out: EC50 NP1538 (B)): 66 ± 42 nM
- EC50 [3]: 1400 ± 300 nM
- Fold change in EC50 relative to parental NL4-3, AA ([4]; recombinant NL4-3, IN 124/125 AA): 1
- Fold change in EC50 relative to parental NL4-3, AM ([4]; recombinant NL4-3, IN 124/125 AM): 0.4
- Fold change in EC50 relative to parental NL4-3, AT ([4]; recombinant NL4-3, IN 124/125 AT): 1
- Fold change in EC50 relative to parental NL4-3, AV ([4]; recombinant NL4-3, IN 124/125 AV): 1
- Fold change in EC50 relative to parental NL4-3, GA ([4]; recombinant NL4-3, IN 124/125 GA): 1
- Fold change in EC50 relative to parental NL4-3, GT ([4]; recombinant NL4-3, IN 124/125 GT): 2
- Fold change in EC50 relative to parental NL4-3, NA ([4]; recombinant NL4-3, IN 124/125 NA): 1
- Fold change in EC50 relative to parental NL4-3, NT ([4]; recombinant NL4-3, IN 124/125 NT): 1
- Fold change in EC50 relative to parental NL4-3, NV ([4]; recombinant NL4-3, IN 124/125 NV): 1
- Fold change in EC50 relative to parental NL4-3, SA ([4]; recombinant NL4-3, IN 124/125 SA): 1
- Fold change in EC50 relative to parental NL4-3, ST ([4]; recombinant NL4-3, IN 124/125 ST): 1
- Fold change in EC50 relative to parental NL4-3, TA ([4]; recombinant NL4-3, IN 124/125 TA): 1
- Fold change in EC50 relative to parental NL4-3, TM ([4]; recombinant NL4-3, IN 124/125 TM): 0.4
- Fold change in EC50 relative to parental NL4-3, TV ([4]; recombinant NL4-3, IN 124/125 TV): 1
- Fold change in EC50 relative to parental NL4-3, CAM2BBY (CRF02) ([5]; IN 124/125 AA): 2
- Fold change in EC50 relative to parental NL4-3, E0836M4 (D) ([5]; IN 124/125 AA): 1
- Fold change in EC50 relative to parental NL4-3, KER2008 (A) ([5]; IN 124/125 AA): 1
- Fold change in EC50 relative to parental NL4-3, NP1525 (CRF01) ([5]; IN 124/125 AA): 1
- Fold change in EC50 relative to parental NL4-3, NP1695 (CRF02) ([5]; IN 124/125 AA): 2
- Fold change in EC50 relative to parental NL4-3, TZA125 (C) ([5]; IN 124/125 AA): 0.5
- Fold change in EC50 relative to parental NL4-3, KSM4030 (A) ([5]; IN 124/125 GA): 1
- Fold change in EC50 relative to parental NL4-3, vGA (C) ([5]; IN 124/125 GA): 2
- Fold change in EC50 relative to parental NL4-3, 99ET14 (C) ([5]; IN 124/125 NA): 1
- Fold change in EC50 relative to parental NL4-3, NP1538 (B) ([5]; IN 124/125 NA): 1
- Fold change in EC50 relative to parental NL4-3, vNA_1 (B) ([5]; IN 124/125 NA): 2
- Fold change in EC50 relative to parental NL4-3, vNA_2 (CRF02) ([5]; IN 124/125 NA): 2
- Fold change in EC50 relative to parental NL4-3, vNV (B) ([5]; IN 124/125 NV): 1
- Fold change in EC50 relative to parental NL4-3, vSA_1 (B) ([5]; IN 124/125 SA): 3
- Fold change in EC50 relative to parental NL4-3, vSA_2 (CRF02) ([5]; IN 124/125 SA): 2
- Fold change in EC50 relative to parental NL4-3, vTA_1 (B) ([5]; IN 124/125 TA): 2
- Fold change in EC50 relative to parental NL4-3, vTA_2 (CRF02) ([5]; IN 124/125 TA): 2
- Fold change in EC50 relative to NL4-3, E92Q [6, 10]: 1
- Fold change in EC50 relative to NL4-3, G140S [6, 10]: 1
- Fold change in EC50 relative to NL4-3, G140S/Q148H [6, 10]: 1
- Fold change in EC50 relative to NL4-3, N155H [6, 10]: 1
- Fold change in EC50 relative to NL4-3, Q148H [6, 10]: 1
- Fold change in EC50 relative to NL4-3, Y143R [6, 10]: 1
- Fold change in EC50 relative to NL4-3, E92Q/N155H (pat.) [6, 11]: 1
- Fold change in EC50 relative to NL4-3, G140S/Q148H (pat.) [6, 11]: 1
- Fold change in EC50 relative to NL4-3, T97A/N155H (pat.) [6, 11]: 1
- Fold change in EC50 relative to NL4-3, NLAY351717 ([6]; NRTI-resistant clone): 1
- Fold change in EC50 relative to NL4-3, NLAY351753 ([6]; NRTI/NNRTI-resistant clone): 1
- Fold change in EC50 relative to NL4-3, K103N/Y181C ([6]; NRTI/NNRTIs group, NL4-3 background): 1
- Fold change in EC50 relative to NL4-3, ARP-4595 ([6]; PI-resistant virus): 0.4
- Fold change in EC50 relative to NL4-3, ARP-4596 ([6]; PI-resistant virus): 0.5
- Fold change in EC50 relative to NL4-3, ARP-11801 ([6]; PI-resistant virus): 1
- Fold change in EC50 relative to NL4-3, ARP-11803 ([6]; PI-resistant virus): 1
- Fold change in EC50 relative to NL4-3, ARP-11807 ([6]; PI-resistant virus): 1
- Fold change in EC50 relative to NL4-3, ARP-11808 ([6]; PI-resistant virus): 1
- EC50 fold change compared to wild type NL4-3, A128T [7]: 6
- EC50 fold change compared to wild type NL4-3, H171Q [7]: 4
- EC50 fold change compared to wild type NL4-3, N222K [7]: 2
- EC50 fold change compared to wild type NL4-3, T174I [7]: 706
- EC50 fold change compared to wild type NL4-3, Y99H [7]: 2
- IC50 [8]: 90 ± 19 nM
- IC50 [9]: 73 ± 13 nM
